Assay results: paper PMC8566451, “Lead optimization of novel quinolone chalcone compounds by a structure–activity relationship (SAR) study to increase efficacy and metabolic stability” (Scientific Reports, 2021)

Experiments:
MDA-MB-231TaxR cells = experiment: Combination of CTR-21 with paclitaxel, combinatorial index; assay type: cell-based, human; settings: paclitaxel 18.75 nM + CTR-21 23 nM
Description: (§1) (a) CTR-21 kills HeLa in a synergistic manner with ABT-737. Cells were treated with 0.78 nM CTR-21 and indicated concentrations of ABT-737. CI denotes combinatorial index, calculated according to described previously. (b) CTR-21 effectively kills paclitaxel-resistant cells when combined with paclitaxel. The paclitaxel-resistant MDA-MB-231TaxR cells were treated with 23 nM of CTR-21 and indicated concentrations of paclitaxel. TEXT PRINTED IN THE PICTURE: (a) Combo: HeLa: CI: 0.93 (ABT-737 (12.5 μM); CTR-21 (0.78 nM)); HeLa: CI: 0.94 (ABT-737 (6.25 μM); CTR-21 (0.78 nM)); HeLa: CI: 0.81 (ABT-737 (3.125 μM); CTR-21 (0.78 nM)); HeLa: CI: 0.48 (ABT-737 (1.5625 μM); CTR-21 (0.78 nM)) | (b) Combo: MDA-MB-231-TaxR: CI: 0.56 (Paclitaxel (75 nM); CTR-21 (23 nM)); MDA-MB-231-TaxR: CI: 0.38 (Paclitaxel (37.5 nM); CTR-21 (23 nM)); MDA-MB-231-TaxR: CI: 0.35 (Paclitaxel (18.75 nM); CTR-21 (23 nM)) DOUBTS OF THE COPYIST ABOUT THIS PICTURE: Each CI value is printed over a group of three bars (the two single agents and Combo). It is assigned here to the Combo, with the concentrations of the two agents given as conditions.

HeLa cells = experiment: Combination of CTR-21 with ABT-737, combinatorial index; assay type: cell-based, human
Description: as §1

COc1ccccc1C(=O)/C=C/c1cc2cccc(OC)c2[nH]c1=O [CTR-21, (E)-8-methoxy-3-(3-(2-methoxyphenyl)-3-oxoprop-1-enyl) quinolin-2(1H)-one]
CI (combinatorial index) (MDA-MB-231TaxR cells): 0.35 | CI (combinatorial index) (HeLa cells; ABT-737 1.5625 μM + CTR-21 0.78 nM): 0.48 | combination index (CI) (HeLa cells; CTR-21 0.78 nM with low doses of ABT-737): less than 1.0
